Measurements published in BindingDB's records for doi:10.1016/j.bmcl.2009.09.123 (Genomics Institute of The Novartis Research Foundation, 2009).

How the values were obtained:
[1] = Inhibition of Tel-fused LYN expressed in mouse BAF3 cells
[2] = Inhibition of Tel-fused SRC expressed in mouse BAF3 cells
[3] = Inhibition of Tel-fused KDR expressed in mouse BAF3 cells
[4] = Inhibition of Tel-fused LCK expressed in mouse BAF3 cells

In the case of `Cc1ccc(NC(=O)c2cccc(C(F)(F)F)c2)cc1Nc1nc2ccccc2n1-c1cc(NCCCN2CCN(C)CC2)ncn1` [N-(4-methyl-3-(1-(6-(3-(4-methylpiperazin-1-yl)propylamino)pyrimidin-4-yl)-1H-benzo[d]imidazol-2-ylamino)phenyl)-3-(trifluoromethyl)benzamide], the IC50 [1] is reported as 149 nM, the IC50 [2] is reported as 601 nM and the IC50 [3] is reported as 582 nM. It also gave an IC50 [4] of 25 nM.
`Cc1ccc(NC(=O)c2cccc(C(F)(F)F)c2)cc1Nc1nc2ccccc2n1-c1cc(NCCCC2COCCN2)ncn1` (configuration not stated) [N-(4-methyl-3-(1-(6-(3-(morpholin-3-yl)propylamino)pyrimidin-4-yl)-1H-benzo[d]imidazol-2-ylamino)phenyl)-3-(trifluoromethyl)benzamide] gave an IC50 [1] of 67 nM, an IC50 [2] of 600 nM and an IC50 [3] of 318 nM. For the same molecule, the IC50 [4] was 40 nM.
With `Cc1ccc(NC(=O)c2cccc(C(F)(F)F)c2)cc1Nc1nc2ccccc2n1-c1cc(N2CCOCC2)ncn1` [N-(4-methyl-3-(1-(6-morpholinopyrimidin-4-yl)-1H-benzo[d]imidazol-2-ylamino)phenyl)-3-(trifluoromethyl)benzamide] the IC50 [1] was greater than 10000 nM, the IC50 [2] was greater than 10000 nM and the IC50 [3] was greater than 10000 nM. For the same molecule, the IC50 [4] was greater than 10000 nM.
